# What was measured:
# [1] = Intrinsic clearance in liver microsomes; conditions: 1 μg/mL with 0.1 mg microsomes, HPLC
# Protocol: (§1) Next, PBTZ169 and BTZ043 were incubated at a concentration of 1 μg/mL with 0.1 mg of human or mouse liver microsomes (Invitrogen) in order to measure their intrinsic clearance. The relative amounts of the original compound remaining over time were determined by HPLC.
# A549 cells = assay: Cytotoxicity TC50, resazurin reduction assay; type: cell-based, human; conditions: 72 h incubation
# Protocol: (§2) The selectivity index (SI) of a compound provides a good indication of the potential tolerability of a drug candidate. […] The TC50 of PBTZ169 and BTZ043 were established using two human cell lines, the hepatocyte line HepG2 and the pneumocyte line A549, using the resazurin reduction assay after incubation with varying amounts of the compounds for 72 h. […] The respective MICs were 1 and 2 ng/ml for PBTZ169 and BTZ043. […] In clinical terms, PBTZ169 should be safer and better tolerated than BTZ043.
# HepG2 cells = assay: Cytotoxicity TC50, resazurin reduction assay; type: cell-based, human; conditions: 72 h incubation
# Protocol: as §2
# [2] = tested on: M. tuberculosis strain H37Rv; assay: In vivo efficacy in the chronic murine TB model; set-up: species or system mice
# M. tuberculosis H37Rv = assay: In vitro inhibitory activity, resazurin reduction assay (MIC99); type: cell-based, Mycobacterium tuberculosis; conditions: for MIC used for the selectivity index: strain not stated; for MIC: Mycobacterium tuberculosis, H37RV, resazurin reduction assay (MIC99), read-out: typical MIC values, M. tuberculosis H37Rv
# [3] = tested on: NfnB-overproducing mutant MN39; assay: Susceptibility of the NfnB-overproducing mutant MN39; type: cell-based, Mycobacterium smegmatis; conditions: M. smegmatis NfnB-overproducing mutant
# Text: A second resistance mechanism to BTZ043 has been described in Mycobacterium smegmatis due to overproduction of the nitroreductase NfnB (Manina, G., et al. Mol Microbiol 2010. epub 2010/07/14).
# [4] = tested on: M. tuberculosis strain H37Rv; assay: In vivo efficacy in the acute murine TB model; set-up: species or system mice; conditions: for Log of CFU lungs: 4 weeks treatment, intragastric 5 times a week; for Log of CFU lungs / Medium longevity (days) M ± SEM: compounds and BTZ043 50 mg/kg, isoniazid 25 mg/kg; for Result of treatment, macroscopic condition of the lungs: treatment for prescribed time
# in vitro = conditions: human, plasma
# Protocol: as §1
# [5] = Acute toxicity after administration per os; conditions: mouse, in vivo, mice
# Protocol: The compounds of the invention are non-toxic after administration per os of doses ranging up to 2000 mg/kg. The compound was well tolerated by animals in the first 24 hours after introduction. […] There were no cases of animal death. LD50 for compounds (2) and (18) is >2000 mg/kg.
# M. smegmatis = assay: In vitro inhibitory activity, resazurin reduction assay (MIC99); type: cell-based, Mycobacterium smegmatis; conditions: Mycolicibacterium smegmatis, read-out: typical MIC values, M. smegmatis
# [6] = Chemical stability in simulated gastric fluid; type: physicochemical; conditions: 5 μM, after 60 minutes
# [7] = tested on: Corynebacterium glutamicum ATCC13032; assay: In vitro inhibitory activity against actinobacteria (MIC); type: cell-based; conditions: read-out: typical MIC values, Corynebacterium glutamicum ATCC13032
SMILES,"Intrinsic Clearance (Clint), Human liver microsomes [1]","Intrinsic Clearance (Clint), Mouse liver microsomes [1]",TC50 against A549 cells (A549 cells) [µg/mL],TC50 against HepG2 cells (HepG2 cells) [µg/mL],Efficacy in reducing CFU compared to INH ([2]; INH 25 mg/kg),MIC used for the selectivity index (M. tuberculosis H37Rv) [µg/mL],Increase in the MIC for MN39 relative to the wild type parental strain [3] [fold],Log of CFU lungs [4],Medium longevity (days) M ± SEM [4],"Result of treatment, macroscopic condition of the lungs [4]",half-life (in vitro) [h],LD50 at 7 days [5] [mg/kg],MIC (M. smegmatis) [µg/mL],Compound remained in simulated gastric fluid [6] [%],"Reduction of the CFU load in the lungs and spleens compared to treatment with BTZ043 ([2]; 50 mg/kg by gavage once daily, six-times/week, 4 weeks)",MIC (M. tuberculosis H37Rv) [µg/mL],MIC [7] [µg/mL]
"C[C@H]1COC2(CCN(c3nc(=O)c4cc(C(F)(F)F)cc([N+](=O)[O-])c4s3)CC2)O1 [BTZ043, 2-[(2S)-2-methyl-1,4-dioxa-8-azaspiro[4.5]dec-8-yl]-8-nitro-6-(trifluoromethyl)-4H-1,3-benzothia-zin-4-one, reference compound]",16.2 μL/min/mg of protein,10.3 μL/min/mg of protein,16.3,6.3,slightly inferior to INH,0.002,6,4.78,Alive at sacrifice,marked improvement,–,–,–,–,–,–,–
"O=c1nc(N2CCN(CC3CCCCC3)CC2)sc2c([N+](=O)[O-])cc(C(F)(F)F)cc12 [Compound 2, 2-[4-(cyclohexylmethyl)piperazin-1-yl]-8-nitro-6-(trifluoromethyl)-4H-1,3-benzothiazin-4-one]",23.9 μL/min/mg of protein,20.9 μL/min/mg of protein,73.2,66.7,–,0.001,–,4.30,Alive at sacrifice,marked improvement,> 1,> 2000,≤ 0.17,67,significantly more efficacious,≤ 0.00019,–
"O=c1nc(N2CCN(CCCOc3ccc(F)cc3)CC2)sc2c([N+](=O)[O-])cc(C(F)(F)F)cc12 [Compound 18, 2-{4-[3-(4-fluorophenoxy)propyl]piperazin-1-yl}-8-nitro-6-(trifluoromethyl)-4H-1,3-benzothiazin-4-one]",–,–,–,–,–,–,–,–,–,–,–,> 2000,≤ 0.0019,–,–,≤ 0.0019,0.25
